Consider 16 compounds from paper PMC4172381 (Bioorganic & medicinal chemistry, 2014).

One series deals with T1, human sEH (Homo sapiens, UniProt P34913).
T1 sequence (P34913 1-555): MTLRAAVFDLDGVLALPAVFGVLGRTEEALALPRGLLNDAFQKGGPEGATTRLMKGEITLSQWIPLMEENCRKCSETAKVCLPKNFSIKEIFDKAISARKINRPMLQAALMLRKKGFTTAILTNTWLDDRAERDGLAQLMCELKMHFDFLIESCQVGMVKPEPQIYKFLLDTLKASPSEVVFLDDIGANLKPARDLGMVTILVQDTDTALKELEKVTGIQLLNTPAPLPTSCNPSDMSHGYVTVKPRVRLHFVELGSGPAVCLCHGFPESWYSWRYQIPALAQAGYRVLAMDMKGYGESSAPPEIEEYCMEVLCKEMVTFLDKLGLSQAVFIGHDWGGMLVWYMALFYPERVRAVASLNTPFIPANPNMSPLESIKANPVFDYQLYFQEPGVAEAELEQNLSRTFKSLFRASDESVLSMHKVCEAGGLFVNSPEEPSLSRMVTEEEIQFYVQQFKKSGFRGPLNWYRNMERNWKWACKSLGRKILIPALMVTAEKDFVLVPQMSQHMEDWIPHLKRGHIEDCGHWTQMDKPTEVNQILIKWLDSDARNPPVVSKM
In words: Fluorescent. Format: biochemical. The conditions noted are these: for improvement in inhibition in comparison with compound 27: ratio of IC50 vs compound 27; for reduced inhibition compared to N,N,O-trimethylated oxyoxalamide derivatives: Conclusions, vs trimethylated derivatives (24, 26, 31); for drop in inhibition compared to compound 6: ratio of IC50 vs compound 6.

A short description of series [1]: Water solubility by light scattering. The conditions noted are these: vs AUDA. It is filed as physicochemical.

Molecules are shown by their SMILES.

In the case of `O=C(NCCCc1ccccc1)C(=O)NOCc1ccccc1` [Compound 3, N^1-(Benzyloxy)-N^2-(3-phenylpropyl)oxalamide], the “inhibition of human sEH, result in words” value against human sEH is recorded as “not effective for producing inhibition activity”.

On to `O=C(NOCc1ccccc1)C(=O)NC12CC3CC(CC(C3)C1)C2` [Compound 4, N^1-(Adamant-1-yl)-N^2-(benzyloxy)oxalamide], for which the “inhibition of human sEH, result in words” value against human sEH is given as “not effective for producing inhibition activity”.

In the case of `CON(C)C(=O)C(=O)N(C)c1ccc(CNC(=O)C23CC4CC(CC(C4)C2)C3)cc1` [Compound 21, N-(4-(N^1-Methyl-N^2-methyl-N^2-(methyloxy)oxalamido)-benzyl)adamantanecarboxamide], the “improved potency compared to O-methyl derivative (18)” value on human sEH (ratio of IC50 vs compound 18) came to 1.5 fold.

On to `CONC(=O)C(=O)Nc1ccc(CNC(=O)C23CC4CC(CC(C4)C2)C3)cc1` [Compound 18, N-(4-(N^2-Methyloxyoxalamido)benzyl)adamantanecarboxamide], for which the “enhancement in inhibition compared to compound 17” value at human sEH (ratio of IC50 vs compound 17) was no less than 3 fold.

With `CON(C)C(=O)C(=O)N(C)c1ccc(CNC(=O)NC23CC4CC(CC(C4)C2)C3)cc1` [Compound 31, 1-(4-(N^1-Methyl-N^2-methyl-N^2-(methyloxy)oxalamido)-benzyl)-3-adamantylurea], the “improvement in inhibition in comparison with compound 27” value (from here on “improvement in inhibition in comparison”) at human sEH is 13 fold. Besides, the “higher solubility in water than AUDA” value in series [1] is 10 fold.

On to `O=C(CNC1C2CC3CC(C2)CC1C3)NOCc1ccccc1` (stereo not drawn) [Compound 16, N-(Benzyloxy)-2-(adamant-2-ylamino)acetamide], for which the “inhibition of human sEH, result in words” value against human sEH was “no inhibition”.

As for `O=C(NOC1CCCCO1)C(=O)Nc1ccc(CNC(=O)C23CC4CC(CC(C4)C2)C3)cc1` (stereo not drawn) [Compound 22, N-(4-(N^2-(Tetrahydro-2H-pyran-2-yloxy)oxalamido)benzyl) adamantanecarboxamide], the “inhibition of human sEH, result in words” value against human sEH was “complete loss in inhibition”.

Consider `CON(C)C(=O)C(=O)Nc1ccc(CNC(=O)NC23CC4CC(CC(C4)C2)C3)cc1` [Compound 30, 1-(4-(N^2-Methyl-N^2-(methyloxy)oxalamido)benzyl)-3-adamantylurea], for which, at human sEH, the “reduced inhibition compared to N,N,O-trimethylated oxyoxalamide derivatives” value was no more than 10 fold and the “improvement in inhibition in comparison” value stood at 3 fold.

Take `CN(OCc1ccccc1)C(=O)C(=O)NC1C2CC3CC(C2)CC1C3` (stereo not drawn) [Compound 13, N^1-(Adamant-2-yl)-N^2-(benzyloxy)-N^2-methyloxalamide]: the “drop in inhibition compared to compound 6” value on human sEH is listed as “approximately 60 fold”.

Take `CC(C)(C)ONC(=O)C(=O)Nc1ccc(CNC(=O)C23CC4CC(CC(C4)C2)C3)cc1` [Compound 19, N-(4-(N^2-t-Butyloxyoxalamido)benzyl)adamantanecarboxamide]: the “lowered inhibition compared to compound 18” value at human sEH (ratio of IC50 vs compound 18) worked out at 1.5 fold.

Regarding `CONC(=O)C(=O)Nc1ccc(CNC(=O)NC23CC4CC(CC(C4)C2)C3)cc1` [Compound 28, 1-(4-(N^2-Methyloxyoxalamido)benzyl)-3-adamantylurea], on human sEH, the “reduced inhibition compared to N,N,O-trimethylated oxyoxalamide derivatives” value is no more than 10 fold and the “improvement in inhibition in comparison” value worked out at 2.5 fold.

With `O=C(NOCc1ccccc1)C(=O)NC1C2CC3CC(C2)CC1C3` (stereo not drawn) [Compound 6, N^1-(Adamant-2-yl)-N^2-(benzyloxy)oxalamide], on human sEH (ratio of IC50 vs AUDA), the “inhibition potency lower compared to AUDA” value is recorded as “approximately 15 fold”. On human sEH (ratio of IC50 vs compound 5), the “improvement in inhibition potency compared to compound 5” value was 16 fold.

As to `CON(C)C(=O)C(=O)Nc1ccc(CNC(=O)C23CC4CC(CC(C4)C2)C3)cc1` [Compound 20, N-(4-(N^2-Methyl-N^2-(methyloxy)oxalamido)benzyl)adamantanecarboxamide], the “improved potency compared to O-methyl derivative (18)” value at human sEH (ratio of IC50 vs compound 18) is listed as 1.5 fold.

As for `O=C(NOc1ccccc1)C(=O)NC1C2CC3CC(C2)CC1C3` (stereo not drawn) [Compound 7, N^1-(Adamant-2-yl)-N^2-(phenyloxy)oxalamide], on human sEH, the “inhibition of human sEH, result in words” value is listed as “no inhibition”.

For `O=C(NOCCCc1ccccc1)C(=O)NC1C2CC3CC(C2)CC1C3` (stereo not drawn) [Compound 12, N^1-(Adamant-2-yl)-N^2-(3-phenylpropyloxy)oxalamide], the “drop in inhibition compared to compound 6” value at human sEH is “approximately 10 fold”. The “better inhibition than compound 11” value on human sEH (ratio of IC50 vs compound 11) is on record as “approximately 8 fold”.

As for `O=C(NCC12CC3CC(CC(C3)C1)C2)C(=O)NOCc1ccccc1` [Compound 5, N^1-(Adamant-1-ylmethyl)-N^2-(benzyloxy)oxalamide], the “inhibition of human sEH, result in words” value at human sEH is “moderate inhibition”.
